Results on three compounds are retold here after ChEMBL document CHEMBL5543066, “Dual COX-2/15-LOX inhibitors: A new avenue in the prevention of cancer” (Eur J Med Chem, 2023).

What is called ED50 is the midpoint of the dose-response relation. By IC50 is commonly meant the concentration that inhibits the measured activity by half.

Test [1] relates to Rattus norvegicus. Put plainly: Anti-inflammatory activity against carrageenan-induced paw edema in Wistar albino rat assessed as inhibition of paw edema. The class given is functional. A general note: The carrageenan paw model is a standard test of acute inflammation.
The test system of test [2] is RAW264.7. Put plainly: Anti-inflammatory activity against mouse RAW264.7 cells assessed as inhibition of LPS-induced TNF-alpha production at 10 uM pre-incubated with LPS-stimulation for 2 hrs followed by compound addition and measured after 22 hrs by ELISA analysis relative to control. The note with it: time 24 hrs. In kind it is functional. More on the design: scale not given: the % may be the effect or the level left.

Test [3] deals with T1, Prostaglandin G/H synthase 2 (Homo sapiens, UniProt P35354).
T1 sequence (P35354 whole entry): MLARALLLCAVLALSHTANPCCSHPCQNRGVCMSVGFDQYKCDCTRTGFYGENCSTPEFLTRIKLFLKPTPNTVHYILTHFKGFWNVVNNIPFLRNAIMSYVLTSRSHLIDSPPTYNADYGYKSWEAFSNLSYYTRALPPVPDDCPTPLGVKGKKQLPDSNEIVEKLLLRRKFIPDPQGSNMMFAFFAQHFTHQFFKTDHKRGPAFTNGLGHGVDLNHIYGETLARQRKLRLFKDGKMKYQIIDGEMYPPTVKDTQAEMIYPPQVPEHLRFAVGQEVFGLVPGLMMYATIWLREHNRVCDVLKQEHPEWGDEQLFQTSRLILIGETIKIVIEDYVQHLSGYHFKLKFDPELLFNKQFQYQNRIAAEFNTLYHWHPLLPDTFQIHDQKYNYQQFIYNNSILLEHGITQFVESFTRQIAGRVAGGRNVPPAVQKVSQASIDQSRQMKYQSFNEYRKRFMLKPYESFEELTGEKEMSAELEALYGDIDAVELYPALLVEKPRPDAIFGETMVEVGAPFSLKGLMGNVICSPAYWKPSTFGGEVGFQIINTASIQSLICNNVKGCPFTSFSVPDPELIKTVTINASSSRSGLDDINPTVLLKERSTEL
Put plainly: Inhibition of COX-2 (unknown origin) by Enzyme immune assay.

Test [4] has as its system Rattus norvegicus. Put plainly: Anti-inflammatory activity against carrageenan-induced paw edema in Wistar albino rat assessed as inhibition of paw edema at 50 mg/kg, sc administered for 14 days relative to control. In kind it is functional. The note with it: time 14 day. Further details: scale not given: the % may be the effect or the level left.
Test [5] is described as follows: Inhibition of human recombinant sPLA2-V.
Test [6] deals with RAW264.7. Put plainly: Anti-inflammatory activity against mouse RAW264.7 cells assessed as inhibition of LPS-induced IL-6 production at 10 uM pre-incubated with LPS-stimulation for 2 hrs followed by compound addition and measured after 22 hrs by ELISA analysis relative to control. Further details: scale not given: the % may be the effect or the level left. In kind it is functional. The note with it: time 24 hrs.

A short description of test [7]: Inhibition of soybean lipoxygenase. More on the design: species or system Glycine max.
A short description of test [8]: Selectivity ratio of IC50 for ovine COX-1 to IC50 for human COX-2.
In test [9] the target is T2, Prostaglandin G/H synthase 1 (Ovis aries, UniProt P05979).
T2 sequence (P05979 whole entry): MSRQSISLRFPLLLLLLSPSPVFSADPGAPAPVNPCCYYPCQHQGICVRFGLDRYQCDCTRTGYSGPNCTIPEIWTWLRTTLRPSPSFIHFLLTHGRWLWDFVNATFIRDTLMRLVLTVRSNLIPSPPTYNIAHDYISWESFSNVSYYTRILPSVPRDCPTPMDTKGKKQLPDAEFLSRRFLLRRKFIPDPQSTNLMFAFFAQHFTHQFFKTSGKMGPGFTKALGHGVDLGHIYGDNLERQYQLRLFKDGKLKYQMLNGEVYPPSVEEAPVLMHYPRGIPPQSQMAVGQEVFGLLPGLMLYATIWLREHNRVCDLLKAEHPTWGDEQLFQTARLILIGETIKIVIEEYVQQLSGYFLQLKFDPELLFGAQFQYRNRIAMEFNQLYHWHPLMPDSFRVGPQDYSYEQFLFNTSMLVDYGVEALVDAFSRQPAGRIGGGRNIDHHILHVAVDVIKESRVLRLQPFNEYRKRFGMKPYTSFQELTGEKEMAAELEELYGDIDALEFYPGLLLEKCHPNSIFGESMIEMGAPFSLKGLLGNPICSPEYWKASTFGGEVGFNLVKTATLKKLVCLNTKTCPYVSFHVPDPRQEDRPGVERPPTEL
Put plainly: Inhibition of ovine COX-1.

For test [10], the target named is T3, Polyunsaturated fatty acid 5-lipoxygenase (Homo sapiens, UniProt P09917).
T3 sequence (P09917 whole entry): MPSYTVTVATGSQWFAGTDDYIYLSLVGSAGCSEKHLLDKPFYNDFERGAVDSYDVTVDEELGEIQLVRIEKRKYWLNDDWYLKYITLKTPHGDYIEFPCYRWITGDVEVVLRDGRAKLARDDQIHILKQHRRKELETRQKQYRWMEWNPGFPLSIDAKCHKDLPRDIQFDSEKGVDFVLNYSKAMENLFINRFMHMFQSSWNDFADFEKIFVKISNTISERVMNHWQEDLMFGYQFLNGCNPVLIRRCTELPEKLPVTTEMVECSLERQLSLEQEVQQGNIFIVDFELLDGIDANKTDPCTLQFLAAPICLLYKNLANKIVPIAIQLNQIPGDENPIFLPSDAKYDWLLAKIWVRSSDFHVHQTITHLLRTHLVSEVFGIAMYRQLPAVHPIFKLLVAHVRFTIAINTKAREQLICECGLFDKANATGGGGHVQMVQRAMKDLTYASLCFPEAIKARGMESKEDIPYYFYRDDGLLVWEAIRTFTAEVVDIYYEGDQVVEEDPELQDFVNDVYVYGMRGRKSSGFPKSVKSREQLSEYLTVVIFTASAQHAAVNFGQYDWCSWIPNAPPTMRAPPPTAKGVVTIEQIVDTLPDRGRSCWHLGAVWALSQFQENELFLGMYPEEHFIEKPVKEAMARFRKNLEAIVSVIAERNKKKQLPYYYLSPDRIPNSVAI
Put plainly: Inhibition of 5-LOX in human PMNL cells. The class given is cell-based.

For test [11], the target named is T1, Prostaglandin G/H synthase 2. Put plainly: Inhibition of human COX-2.
Another test has as its target Carbonic anhydrase 2 (Homo sapiens, UniProt P00918). Put plainly: Inhibition of recombinant human carbonic anhydrase II incubated for 30 mins by spectrophotometric analysis.

Each structure is given as a SMILES string.

For the compound `COc1ccnc(Nc2nn3c(SC)c(C#N)c(O)nc3c2C#N)c1`, the 50% effective dose (ED50) with Rattus norvegicus [1] stood at 35 mg/kg. Besides, the values for the Activity in the test with RAW264.7 [2], in the test on Rattus norvegicus [4] and in the test on RAW264.7 [6] were 89%, 46% and 80%, respectively. Besides, the results for the IC50 in [3] and in [5] were 1110 nM and 1000 nM, respectively.

In the case of `O=C1c2ccccc2C(=O)N1c1nc2cc([N+](=O)[O-])ccc2n1Cc1cccc(-c2ccccc2)c1`, the IC50 turned out to be 1020 nM in test [7], 9850 nM in test [9], 320 nM in [10] and 1000 nM in test [11]. Moreover, the Ratio IC50 in test [8] was 9.85.

As for `NS(=O)(=O)c1ccc(NCCC(=O)N/N=C/c2ccc(-c3ccc(Br)s3)cc2)cc1`, the IC50 on Carbonic anhydrase 2 was 110 nM.
